From PubChem BioAssay AID2060612 (Molecular Pharmacology Branch, DTP, NCI, 2025)

Tested on: 565232-114-T-J1-PDC complex spheroid viability
Experiment: Anticancer human tumor 565232-114-T-J1-PDC patient-derived bladder carcinoma cell line growth inhibition [CLK]
Conditions: for IC50: curve of first compound; for viability, T/C: stronger effect = lower value
Summary of the method: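 Multi-cell-type spheroids combined patient-derived tumor cells with HUVEC endothelial cells and human mesenchymal stem cells. Paired agents were dosed in half-log steps down from about clinical Cmax, or from 10 microM where Cmax was unknown.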

[1] = second compound 0.0316 µM, first compound 0.0316 µM
[2] = second compound 0.0316 µM, first compound 0.1 µM
[3] = second compound 0.1 µM, first compound 0.0316 µM
[4] = second compound 0.1 µM, first compound 0.1 µM
[5] = second compound 0.316 µM, first compound 0.0316 µM
[6] = second compound 0.316 µM, first compound 0.1 µM
[7] = second compound 1 µM, first compound 0.0316 µM
[8] = second compound 1 µM, first compound 0.1 µM
[9] = second compound 3.16 µM, first compound 0.0316 µM
[10] = second compound 3.16 µM, first compound 0.1 µM
[11] = second compound 10 µM, first compound 0.0316 µM
[12] = second compound 10 µM, first compound 0.1 µM
[13] = second compound 0.0316 µM, first compound 0.316 µM
[14] = second compound 0.0316 µM, first compound 1 µM
[15] = second compound 0.0316 µM, first compound 3.16 µM
[16] = second compound 0.0316 µM, first compound 10 µM
[17] = second compound 0.1 µM, first compound 0.316 µM
[18] = second compound 0.1 µM, first compound 1 µM
[19] = second compound 0.1 µM, first compound 3.16 µM
[20] = second compound 0.1 µM, first compound 10 µM
[21] = second compound 0.316 µM, first compound 0.316 µM
[22] = second compound 0.316 µM, first compound 1 µM
[23] = second compound 0.316 µM, first compound 3.16 µM
[24] = second compound 0.316 µM, first compound 10 µM
[25] = second compound 1 µM, first compound 0.316 µM
[26] = second compound 1 µM, first compound 1 µM
[27] = second compound 1 µM, first compound 3.16 µM
[28] = second compound 1 µM, first compound 10 µM
[29] = second compound 3.16 µM, first compound 0.316 µM
[30] = second compound 3.16 µM, first compound 1 µM
[31] = second compound 3.16 µM, first compound 3.16 µM
[32] = second compound 3.16 µM, first compound 10 µM
[33] = second compound 10 µM, first compound 0.316 µM
[34] = second compound 10 µM, first compound 1 µM
[35] = second compound 10 µM, first compound 3.16 µM
[36] = second compound 10 µM, first compound 10 µM
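Also: spheroids exposed to compounds for 7 days before readout.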
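For viability, T/C in this document: 100% = DMSO vehicle wells with luminescence normalized to vehicle control.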

Cn1ncnc1[C@H]1c2n[nH]c(=O)c3cc(F)cc(c23)N[C@@H]1c1ccc(F)cc1 + CNC(=O)c1ccc(Nc2nc(OC3CCCC3)c3c(-c4ccc5nc(C)oc5c4)c[nH]c3n2)c(OC)c1
IC50 (second compound 0.0316 µM): > 100 nM | IC50 (second compound 0.1 µM): < 0.316 nM | IC50 (second compound 0.316 µM): < 0.316 nM | IC50 (second compound 1 µM): < 0.316 nM | IC50 (second compound 3.16 µM): < 0.316 nM | IC50 (second compound 10 µM): < 0.316 nM | viability, T/C (second compound 0.0316 µM, first compound 0.000316 µM): 107% | viability, T/C (second compound 0.0316 µM, first compound 0.001 µM): 81.8% | viability, T/C (second compound 0.0316 µM, first compound 0.00316 µM): 94.9% | viability, T/C (second compound 0.0316 µM, first compound 0.01 µM): 95% | viability, T/C [1]: 84.8% | viability, T/C [2]: 53.2% | viability, T/C (second compound 0.1 µM, first compound 0.000316 µM): 50% | viability, T/C (second compound 0.1 µM, first compound 0.001 µM): 44.4% | viability, T/C (second compound 0.1 µM, first compound 0.00316 µM): 53.3% | viability, T/C (second compound 0.1 µM, first compound 0.01 µM): 43.6% | viability, T/C [3]: 34.7% | viability, T/C [4]: 23.3% | viability, T/C (second compound 0.316 µM, first compound 0.000316 µM): 31.4% | viability, T/C (second compound 0.316 µM, first compound 0.001 µM): 29.8% | viability, T/C (second compound 0.316 µM, first compound 0.00316 µM): 30.4% | viability, T/C (second compound 0.316 µM, first compound 0.01 µM): 26.4% | viability, T/C [5]: 25.7% | viability, T/C [6]: 15.4% | viability, T/C (second compound 1 µM, first compound 0.000316 µM): 21.9% | viability, T/C (second compound 1 µM, first compound 0.001 µM): 22.3% | viability, T/C (second compound 1 µM, first compound 0.00316 µM): 20% | viability, T/C (second compound 1 µM, first compound 0.01 µM): 16.9% | viability, T/C [7]: 22.2% | viability, T/C [8]: 15.7% | viability, T/C (second compound 3.16 µM, first compound 0.000316 µM): 12.3% | viability, T/C (second compound 3.16 µM, first compound 0.001 µM): 20.6% | viability, T/C (second compound 3.16 µM, first compound 0.00316 µM): 18.7% | viability, T/C (second compound 3.16 µM, first compound 0.01 µM): 16.4% | viability, T/C [9]: 20.2% | viability, T/C [10]: 12.4% | viability, T/C (second compound 10 µM, first compound 0.000316 µM): 20.4% | viability, T/C (second compound 10 µM, first compound 0.001 µM): 16.1% | viability, T/C (second compound 10 µM, first compound 0.00316 µM): 20.3% | viability, T/C (second compound 10 µM, first compound 0.01 µM): 19.5% | viability, T/C [11]: 17.8% | viability, T/C [12]: 11.4%

Nc1ccn(C2OC(CO)C(O)C2(F)F)c(=O)n1 (stereo unspecified) + CNC(=O)c1ccc(Nc2nc(OC3CCCC3)c3c(-c4ccc5nc(C)oc5c4)c[nH]c3n2)c(OC)c1
IC50 (second compound 0.0316 µM): 36 nM | IC50 (second compound 0.1 µM): < 31.6 nM | IC50 (second compound 0.316 µM): < 31.6 nM | IC50 (second compound 1 µM): < 31.6 nM | IC50 (second compound 3.16 µM): < 31.6 nM | IC50 (second compound 10 µM): < 31.6 nM | viability, T/C [1]: 54.3% | viability, T/C [2]: 18.6% | viability, T/C [13]: 8.71% | viability, T/C [14]: 7.4% | viability, T/C [15]: 11.2% | viability, T/C [16]: 13.6% | viability, T/C [3]: 35.7% | viability, T/C [4]: 22% | viability, T/C [17]: 8.15% | viability, T/C [18]: 9.21% | viability, T/C [19]: 13.3% | viability, T/C [20]: 11.8% | viability, T/C [5]: 26.2% | viability, T/C [6]: 19.5% | viability, T/C [21]: 8.41% | viability, T/C [22]: 7.45% | viability, T/C [23]: 12.3% | viability, T/C [24]: 12.2% | viability, T/C [7]: 16.9% | viability, T/C [8]: 14.9% | viability, T/C [25]: 8.75% | viability, T/C [26]: 7.6% | viability, T/C [27]: 9.48% | viability, T/C [28]: 8.93% | viability, T/C [9]: 19.3% | viability, T/C [10]: 14.5% | viability, T/C [29]: 5.99% | viability, T/C [30]: 5.99% | viability, T/C [31]: 6.76% | viability, T/C [32]: 6.01% | viability, T/C [11]: 17.7% | viability, T/C [12]: 13.9% | viability, T/C [33]: 6.66% | viability, T/C [34]: 6.31% | viability, T/C [35]: 6.89% | viability, T/C [36]: 5.15%

O=c1[nH]cc(F)c(=O)[nH]1 + CNC(=O)c1ccc(Nc2nc(OC3CCCC3)c3c(-c4ccc5nc(C)oc5c4)c[nH]c3n2)c(OC)c1
IC50 (second compound 0.0316 µM): > 10000 nM | IC50 (second compound 0.1 µM): < 31.6 nM | IC50 (second compound 0.316 µM): < 31.6 nM | IC50 (second compound 1 µM): < 31.6 nM | IC50 (second compound 3.16 µM): < 31.6 nM | IC50 (second compound 10 µM): < 31.6 nM | viability, T/C [1]: 84.3% | viability, T/C [2]: 96.8% | viability, T/C [13]: 97.1% | viability, T/C [14]: 108% | viability, T/C [15]: 87.3% | viability, T/C [16]: 72.4% | viability, T/C [3]: 44% | viability, T/C [4]: 50% | viability, T/C [17]: 44% | viability, T/C [18]: 48% | viability, T/C [19]: 41% | viability, T/C [20]: 46.1% | viability, T/C [5]: 29.7% | viability, T/C [6]: 31.4% | viability, T/C [21]: 31.2% | viability, T/C [22]: 36% | viability, T/C [23]: 35.3% | viability, T/C [24]: 40.1% | viability, T/C [7]: 20.1% | viability, T/C [8]: 21% | viability, T/C [25]: 19.4% | viability, T/C [26]: 23.1% | viability, T/C [27]: 23.8% | viability, T/C [28]: 28.5% | viability, T/C [9]: 16.9% | viability, T/C [10]: 16.4% | viability, T/C [29]: 17.8% | viability, T/C [30]: 19.6% | viability, T/C [31]: 18.6% | viability, T/C [32]: 21.3% | viability, T/C [11]: 21.3% | viability, T/C [12]: 16.1% | viability, T/C [33]: 18.2% | viability, T/C [34]: 19.9% | viability, T/C [35]: 18.1% | viability, T/C [36]: 18.9%
